Paper PMC4261083, “An atypical residue in the pore of Varroa destructor GABA-activated RDL receptors affects picrotoxin block and thymol modulation” (Insect Biochemistry and Molecular Biology, 2014)
Numbering of substitutions follows the chain as printed.

Columns and labels:
Test in all cases: GABA activation of RDL receptors, two electrode voltage clamp in Xenopus oocytes
Format in all cases: cell-based
[1] = target: T1, N-7′H mutant Drosophila RDL receptor (Drosophila melanogaster, UniProt P25123, N292H); conditions: N-7′H RDL
T1 construct: expressed in transfected cells; host or cells: Xenopus laevis oocytes injected with cRNA
T1 sequence (P25123 45-606 N292H): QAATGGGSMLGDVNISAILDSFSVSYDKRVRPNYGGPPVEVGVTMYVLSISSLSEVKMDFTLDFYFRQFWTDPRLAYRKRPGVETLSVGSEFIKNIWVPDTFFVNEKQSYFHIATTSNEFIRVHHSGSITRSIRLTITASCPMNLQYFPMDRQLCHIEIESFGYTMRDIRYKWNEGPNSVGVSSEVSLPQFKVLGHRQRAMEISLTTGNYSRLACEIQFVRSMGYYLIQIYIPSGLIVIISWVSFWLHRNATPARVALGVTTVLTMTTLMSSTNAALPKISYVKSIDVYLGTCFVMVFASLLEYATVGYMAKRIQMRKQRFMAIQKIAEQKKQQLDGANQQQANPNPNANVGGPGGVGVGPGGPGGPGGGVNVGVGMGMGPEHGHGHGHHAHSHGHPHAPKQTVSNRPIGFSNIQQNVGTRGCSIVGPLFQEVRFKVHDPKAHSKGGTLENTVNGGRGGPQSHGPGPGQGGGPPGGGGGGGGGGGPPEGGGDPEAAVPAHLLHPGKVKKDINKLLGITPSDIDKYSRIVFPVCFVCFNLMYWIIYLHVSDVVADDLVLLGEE
Experimental: (§1) X. laevis oocyte-positive females were purchased from NASCO (Fort Atkinson, Wisconsin, USA) and maintained according to standard methods. Harvested stage V-VI Xenopus oocytes were washed in four changes of ND96 (96 mM NaCl, 2 mM KCl, 1 mM MgCl2, 1 mM CaCl2, 5 mM HEPES, pH 7.5), de-folliculated in 1.5 mg ml^−1 collagenase Type 1A for approximately 2 h, washed again in four changes of ND96 and stored in ND96 containing 2.5 mM sodium pyruvate, 0.7 mM theophylline and […].
(§2) Site directed mutagenesis was performed with the QuikChange mutagenesis kit (Agilent, La Jolla, CA). cRNA was transcribed in vitro from linearised pGEMHE cDNA template using the mMessage mMachine T7 Transcription kit (Ambion, Austin, Texas, USA). Stage V and VI oocytes were injected with 5 ng cRNA, incubated at 18 °C, and currents recorded 18–24 h post-injection.
(§3) Currents were recorded at 5 kHz and filtered at a frequency of 1 kHz. Micro-electrodes were fabricated from borosilicate glass (GC120TF-10, Harvard Apparatus, Edenbridge, Kent, UK) using a one stage horizontal pull (P-87, Sutter Instrument Company, California, USA) and filled with 3 M KCl. […] Oocytes were perfused with ND96 at a constant rate of 12 ml min^−1. Drug application was via a simple gravity fed system calibrated to run at the same rate.
(§4) Analysis and curve fitting was performed using Prism v5 (GraphPad Software, San Diego, California, USA). Concentration-response data for each oocyte was normalised to the maximum current for that oocyte. The mean and S.E.M. for a series of oocytes were fitted to the four parameter logistic equation in Prism.

[2] = target: T2, wild type Drosophila RDL receptor (Drosophila melanogaster, UniProt P25123)
T2 construct: expressed in transfected cells; host or cells: Xenopus laevis oocytes injected with cRNA
T2 sequence (P25123 45-606): T1 sequence (P25123 45-606 N292H) with H248N
Experimental: as §1, §2, §3, §4

[3] = target: T3, T6′M mutant Drosophila RDL receptor (Drosophila melanogaster, UniProt P25123, T305M)
T3 construct: expressed in transfected cells; host or cells: Xenopus laevis oocytes injected with cRNA
T3 sequence (P25123 45-606 T305M): T1 sequence (P25123 45-606 N292H) with H248N, T261M
Experimental: as §1, §2, §3, §4

In the case of NCCCC(=O)O [GABA], the “GABA nH (Hill slope)” value [1] is reported as 2.5 ± 0.5, the “GABA nH (Hill slope)” value [2] is reported as 1.6 ± 0.5 and the “GABA nH (Hill slope)” value [3] is reported as 1.4 ± 0.2.
